From EP0931078B1, “NOVEL TRICYCLIC PIPERIDINYL COMPOUNDS USEFUL AS INHIBITORS OF FARNESYL-PROTEIN TRANSFERASE” (SCHERING CORPORATION, priority 1996, dated 1998) come the findings set out here.

The experiment addresses T1, partially purified rat brain famesyl protein transferase (FPT) (Rattus norvegicus, UniProt Q02293+Q04631).
T1 construct: partially purified rat brain famesyl protein transferase (FPT); from tissue; host or cells: rat brain
The experiment is described as follows: In vitro enzyme assay: inhibition of Ras-CVLS farnesylation by farnesyl protein transferase (FPT). As to conditions: for inhibition at 1.1 µM: read-out: FPT Inhibition. The class given is biochemical. The method, then:
• 1. In vitro enzyme assays: FPT IC50 (inhibition of famesyl protein transferase, in vitro enzyme assay) are determined by the methods disclosed in […] or WO 95/10516. […] Cell-based assay. COS IC50 values refer to the COS cells activity inhibition of Ras processing, are determined by the methods disclosed in […] or WO 95/10516.

Setting [1] is: unit printed as uM (Examples 49-54).

Like-named read-outs stand apart in the source and are kept apart here.

T1 sequence (Q02293 whole entry, one chain of several): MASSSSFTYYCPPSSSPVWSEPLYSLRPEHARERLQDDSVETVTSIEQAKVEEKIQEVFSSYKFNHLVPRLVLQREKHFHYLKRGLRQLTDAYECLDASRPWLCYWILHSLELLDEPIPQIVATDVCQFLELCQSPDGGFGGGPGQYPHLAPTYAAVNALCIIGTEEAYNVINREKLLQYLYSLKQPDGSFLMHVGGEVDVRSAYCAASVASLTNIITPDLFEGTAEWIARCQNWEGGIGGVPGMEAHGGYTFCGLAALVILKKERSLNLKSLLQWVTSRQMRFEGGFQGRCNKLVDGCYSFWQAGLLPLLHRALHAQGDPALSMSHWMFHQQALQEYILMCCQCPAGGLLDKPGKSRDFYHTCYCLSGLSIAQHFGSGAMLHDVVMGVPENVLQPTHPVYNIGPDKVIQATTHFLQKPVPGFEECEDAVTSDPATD

Consider `O=C(CC1CCCN(C2c3ccc(Cl)cc3CCc3cc(Br)cnc32)C1)NCc1cccnc1` (centres unmarked) [Example 18, 1-(3-Bromo-8-chloro-6,11-dihydro-5H-benzo[5,6]cyclohepta[1,2-b]pyridin-11-yl)-N-(3-pyridinylmethyl)-3-piperidineacetamide], for which the inhibition at 1.1 µM is 9%.
Same read-out and setting: the same measure for `O=C(CC1CCCN(C2c3ccc(Cl)cc3CCc3cc(Br)cnc32)C1)Nc1cccnc1` (centres unmarked) [Example 19, 1-(3-Bromo-8-chloro-6,11-dihydro-5H-benzo[5,6]cyclohepta[1,2-b]pyridin-11-yl)-N-(3-pyridinyl)-3-piperidineacetamide]: 15%.
As for `O=C(CC1CCN(C2c3ccc(Cl)cc3CCc3cc(Br)cnc32)CC1)NCc1cccnc1` (centres unmarked) [Example 43, 1-(3-Bromo-8-chloro-6,11-dihydro-5H-benzo[5,6]cyclohepta[1,2-b]pyridin-11-yl)-N-(3-pyridylmethyl)-4-piperidineacetamide], the inhibition at 0.22 µM (read-out: FPT INH) stood at 43%.
Consider `O=C(CCC1CCN(C2c3ccc(Cl)cc3CCc3cc(Br)cnc32)CC1)NCc1cccnc1` (centres unmarked) [Example 44, 1-(3-Bromo-8-chloro-6,11-dihydro-5H-benzo[5,6]cyclohepta[1,2-b]pyridin-11-yl)-N-(3-pyridylmethyl)-4-piperidinepropanamide], for which the inhibition at 0.35 µM (read-out: FPT INH) is 39%.
Consider `O=C(CC1CCN(C2c3ncc(Br)cc3CCc3cc(Cl)cc(Br)c32)CC1)NCc1cccnc1` (centres unmarked) [Example 45, 1-(8-Chloro-3,10-dibromo-6,11-dihydro-5H-benzo[5,6]cycloheptal[1,2-b]pyridin-11-yl)-N-(3-pyridylmethyl)-4-piperidineacetamide], for which the 50% inhibitory concentration (IC50) was 0.042 µM. This lies in the double-digit nanomolar range.
With `O=C(NC1CC1)[C@@H]1CCCN(C2c3ncc(Br)cc3CCc3cc(Cl)cc(Br)c32)C1` (some centres unmarked) [Example 49, N-cyclopropyl-1-(3,10-dibromo-8-chloro-6,11-dihydro-5H-benzo[5,6]cyclohepta[1,2-b]pyridin-11-yl)-3-piperidinecarboxamide], half-maximal inhibition under setting [1] (IC50) required 0.58 µM. This lies in the sub-micromolar range.
For the molecule `CNC(=O)[C@@H]1CCCN(C2c3ncc(Br)cc3CCc3cc(Cl)cc(Br)c32)C1` (some centres unmarked) [Example 50, 1-(3,10-Dibromo-8-chloro-6,11-dihydro-5H-benzo[5,6]cyclohepta[1,2-b]pyridin-11-yl)-N-methyl-3-piperidinecarboxamide], under setting [1], the half-maximal inhibitory concentration (IC50) is 0.96 µM.
Under setting [1], `O=C(NCCc1cccnc1)[C@@H]1CCCN(C2c3ncc(Br)cc3CCc3cc(Cl)cc(Br)c32)C1` (some centres unmarked) [Example 52, 1-(3,10-Dibrorno-8-chforo-6,11-dihydro-5H-benzo[5,6]cyclohepta[1,2-b]pyridin-11-yl)-N-[2-(3-pyridinyl)ethyl]-3-piperidinecarboxamide] showed an IC50 of 0.081 µM. Compared with the last molecule, the IC50 is about 12-fold lower.
The same measure, in the same setting: the figure for `CN(C)CC(=O)N1CCC(CNC(=O)[C@@H]2CCCN(C3c4ncc(Br)cc4CCc4cc(Cl)cc(Br)c43)C2)CC1` (some centres unmarked) [Example 53, 1-(3,10-Dibromo-8-chloro-6,11-dihydro-5H-benzo[5,6]cyclohepta[1,2-b]pyridin-11-yl)-N-[[1-[(dimethylamino)acetyl]-4-piperidinyl]methyl]-3-piperidinecarboxamide] is 0.11 µM; for `O=C(NCCCN1CCCC1=O)C1CCCN(C2c3ncc(Br)cc3CCc3cc(Cl)cc(Br)c32)C1` (centres unmarked) [Example 54, 1-(3,10-Dibromo-8-chloro-6,11-dihydro-5H-benzo[5,6]cyclohepta[1,2-b]pyridin-11-yl)-N-[3-(2-oxo-1-pyrrolidinyl)propyl]-3-piperidinecarboxamide] it is 0.1 µM.
For `O=C(NCc1cccnc1)C1CCCCN1C1c2ncc(Br)cc2CCc2cc(Cl)cc(Br)c21` (stereo not drawn) [Isomer C3 amide], the IC50 is 0.3 µM. That is a sub-micromolar value.

The term IC50 denotes the point on the concentration scale where inhibition reaches its midpoint. Read a low IC50 as higher potency.
